Results on six molecules are retold here after US10093656B2, “Fused-ring or tricyclic aryl pyrimidine compound used as kinase inhibitor” (NANJING SANHOME PHARMACEUTICAL CO., LTD, priority 2015, dated 2018).

Molecules are shown by their SMILES.

The target in assay [1] is T1, EGFR wild type (Homo sapiens, UniProt P00533).
T1 construct: purchased Life technology (Madison, Wis.)
Kind of assay: Wild-type EGFR enzyme HTRF inhibition assay. The conditions noted are these: 25 μM ATP, read-out: EGFR WT IC50. The assay is classed as biochemical. The method, boiled down: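 HTRF with 0.05 nM wild-type EGFR, 1 μM biotin-TK1 peptide, 25 μM ATP, 60 min at 23° C; detected with Eu-anti-TK1 antibody 2 nM and XL665 62.5 nM, 60 min at 23° C. Ten 3-fold doses, 300 nM to 0.015 nM final; IC50 by four-parameter fit of % inhibition.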

For assay [2], the system named is A431 cells EGFR WT. The experiment in a line: A431 cell viability assay (Cell Titer-Glo, 6 days). The conditions noted are these: for IC50: Homo sapiens, A-431, 144 h, A431 cells, 6 days; for A431:NCI-H1975 (ratio): ratio of cell IC50 A431 to NCI-H1975. The assay is classed as cell-based, human. In outline:
(§1)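 A431 (EGFR WT) and NCI-H1975 (EGFR L858R/T790M) cells treated for 6 days at 37° C, in duplicate with 10 three-fold doses from 10 μM to 0.508 nM final. Viability read as CellTiter-Glo luminescence. IC50 from four-parameter fit of % inhibition.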
For orientation: In ATP-based viability assays light output follows the ATP content of the culture.

Assay [3] has as its target T2, INSR (Homo sapiens, UniProt P06213).
T2 construct: purchased Life technology (Madison, Wis.)
The experiment in a line: INSR enzyme HTRF inhibition assay. Particulars: 35 μM ATP, read-out: INSR_IC50. Type of assay: biochemical. The procedure:
Enzyme: EGFR wild type, EGFR T790M/L858R, EGFR T790M and INSR were purchased from Life technology (Madison, Wis.), EGFR d746-750/T790M was purchased from Carna Biosciences (Japan).
HTRF Kit was purchased from Cis-Bio International which contained the Eu-labeled TK1 antibody, XL665 and biotin-labeled TK1 polypeptide substrates.
Detecting instrument: Envision (PerkinElmer).
The test compound was diluted 3-fold to obtain 10 doses of which the final concentration was from 300 nM to 0.015 nM.
INSR Enzyme Reaction Mixture System:
0.5 nM INSR, 1 μM biotin-TK1 peptide, 35 μM ATP enzyme buffer, a total of which was 10 μL. The reaction plate was white Proxiplate 384-Plus plate (PerkinElmer) and the mixture was reacted at 23° C. for 60 minutes.
Reaction Detection: 10 μL of detection reagent containing Antibody 2 nM and XL665 62.5 nM was added, and the reagent was incubated at 23° C. for 60 minutes. The plates were read by Envision.
The reading is converted to the suppression rate (%) by the following formula […]/(Max-Min)*100%. IC50 Data was measured by four-parameter curve fitting (Model 205 in XLFITS, IDBS).
In general terms: In TR-FRET formats the signal depends on donor and acceptor labels being close together.

Assay [4] addresses T3, EGFR d746-750/T790M (Homo sapiens, UniProt P00533, DEL746-750/T790M).
T3 construct: purchased Carna Biosciences (Japan)
The experiment in a line: EGFR d746-750/T790M enzyme HTRF inhibition assay. Type of assay: biochemical. The conditions noted are these: 40 μM ATP. In outline:
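0.025 nM enzyme with 1 μM biotin-TK1 peptide and 40 μM ATP, 60 min at 23° C; compound tested at 10 doses, 300 nM to 0.015 nM final. HTRF read (Eu-anti-TK1 antibody 2 nM, XL665 62.5 nM, 60 min at 23° C); IC50 from four-parameter fit of % inhibition.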

Assay [5] has as its system NCI-H1975 cells EGFR L858R/T790M. Kind of assay: NCI-H1975 cell viability assay (Cell Titer-Glo, 6 days). The assay is classed as cell-based. Particulars: Homo sapiens, 144 h. The method, boiled down:
as §1

In assay [6] the target is T4, EGFR T790M/L858R (Homo sapiens, UniProt P00533, L858R/T790M).
T4 construct: purchased Life technology (Madison, Wis.)
T4 sequence (P00533 25-1210 T790M/L858R): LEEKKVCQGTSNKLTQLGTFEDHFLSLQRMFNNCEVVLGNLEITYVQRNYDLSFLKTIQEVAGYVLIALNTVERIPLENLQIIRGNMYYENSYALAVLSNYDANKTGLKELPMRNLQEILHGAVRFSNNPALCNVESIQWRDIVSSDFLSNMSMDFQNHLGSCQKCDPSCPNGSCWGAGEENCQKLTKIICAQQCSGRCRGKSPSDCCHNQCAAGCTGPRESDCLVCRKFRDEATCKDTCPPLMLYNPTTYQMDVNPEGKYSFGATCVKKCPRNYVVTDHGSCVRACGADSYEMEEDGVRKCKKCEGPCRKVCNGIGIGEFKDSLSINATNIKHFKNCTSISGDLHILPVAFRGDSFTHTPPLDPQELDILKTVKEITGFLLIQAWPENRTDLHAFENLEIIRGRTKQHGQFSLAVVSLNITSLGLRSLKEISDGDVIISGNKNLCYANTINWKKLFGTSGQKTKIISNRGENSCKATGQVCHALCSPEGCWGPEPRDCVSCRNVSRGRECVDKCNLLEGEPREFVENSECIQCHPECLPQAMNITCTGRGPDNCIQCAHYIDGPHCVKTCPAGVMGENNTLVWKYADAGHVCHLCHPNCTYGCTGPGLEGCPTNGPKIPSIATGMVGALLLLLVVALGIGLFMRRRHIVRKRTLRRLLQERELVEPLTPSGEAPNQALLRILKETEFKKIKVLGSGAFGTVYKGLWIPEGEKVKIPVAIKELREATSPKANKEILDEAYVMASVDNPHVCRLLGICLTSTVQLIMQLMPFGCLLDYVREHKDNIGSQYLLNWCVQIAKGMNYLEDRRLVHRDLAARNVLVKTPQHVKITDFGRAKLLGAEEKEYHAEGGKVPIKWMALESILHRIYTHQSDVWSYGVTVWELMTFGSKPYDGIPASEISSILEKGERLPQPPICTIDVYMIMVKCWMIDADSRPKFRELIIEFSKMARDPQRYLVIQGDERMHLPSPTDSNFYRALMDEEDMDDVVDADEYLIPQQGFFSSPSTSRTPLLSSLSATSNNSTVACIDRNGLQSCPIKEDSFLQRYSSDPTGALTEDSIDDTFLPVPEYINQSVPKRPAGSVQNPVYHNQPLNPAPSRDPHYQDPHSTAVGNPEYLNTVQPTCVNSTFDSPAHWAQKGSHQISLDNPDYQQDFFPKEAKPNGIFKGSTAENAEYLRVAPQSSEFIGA
The experiment in a line: EGFR T790M/L858R enzyme HTRF inhibition assay. The assay is classed as biochemical. Particulars: 20 μM ATP, read-out: EGFR L858R/T79M IC50. In outline:
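HTRF assay with 0.04 nM enzyme, 1 μM biotin-TK1 peptide and 20 μM ATP, 60 min at 23° C. Product detected with Eu-anti-TK1 antibody/XL665 (60 min at 23° C); compound at 10 doses, 300 nM to 0.015 nM final. IC50 from four-parameter fit.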

In assay [7] the test system is human skin squamous cell A431 xenograft (CDX). Kind of assay: Selectivity study in vivo, A431 xenograft (CDX) model. Particulars: Table 5 experiment, AZD9291 5 mg/kg; for Tumor Volume (mm^3) 4 days: day 4, oral once daily: 33, 34, 40, 42, 43 20 mg/kg; for Tumor Volume (mm^3) 11 days: day 11, oral once daily: 33, 34, 40, 42, 43 20 mg/kg; for Tumor Volume (mm^3) 18 days: day 18, oral once daily: 33, 34, 40, 42, 43 20 mg/kg. More on the design: species or system BALB/c nude mice. The procedure: In this model, the less inhibitory effect on the tumor, the better the selectivity in vivo.
The selective experiments in vivo were performed on BALB/c nude mice that subcutaneously implanted human skin squamous cell A431 xenograft (CDX).
BALB/c nude mice, female, 6-8 weeks, weighted about 18-20 grams, the mice were kept in a special pathogen-free environment and in a single ventilation cage (5 mice per cage). The bedding and water of all the cages were disinfected before use. All animals were free to obtain standard certified commercial laboratory diets. All mice were purchased from mice of Shanghai BK Laboratory Animal Co., LTD for research. The tumor tissue (20-30 mm^3) was implanted subcutaneously in the […] of each mouse for tumor growth. The experiment was started when the average tumor volume reached about 150-200 mm^3. The test compound was orally administered (compounds 17, 30, 37 and 38 were administered once daily at 20 mg/kg, the compound AZD9291 was administered once daily at 5 mg/kg, the compound CO-1686 was administered twice daily at 50 mg/kg, the compound Erlotinib was administered once daily at 75 mg/kg and the compound Afatinib was administered once daily at 7.5 mg/kg, 21 days of continuous administration. The data were shown in Table 4; compounds 33, 34, 40, 42 and 43 were administered once daily at 20 mg/kg and compound AZD9291 was administered once daily at5 mg/kg, 21 days of continuous administration. The tumor volume was measured twice a week with a two-dimensional caliper and the volume was measured in cubic millimeters and calculated by the following formula: V=V=0.5 a×b2, where a and b were the major and minor diameters of the tumor, respectively.

The subject of assay [8] is NCI-H1975 lung cancer patient-derived xenograft (CDX). The experiment in a line: Pharmacodynamics study in vivo, NCI-H1975 xenograft (CDX) model. Further details: species or system BALB/c nude mice. Particulars: AZD9291 5 mg/kg; for Tumor Volume (mm^3) 4 days: day 4, oral daily: compound 30 10 mg/kg, 33, 34, 40, 42, 43 20 mg/kg; for Tumor Volume (mm^3) 7 days: day 7, oral daily: compound 30 10 mg/kg, 33, 34, 40, 42, 43 20 mg/kg; for Tumor Volume (mm^3) 11 days: day 11, oral daily: compound 30 10 mg/kg, 33, 34, 40, 42, 43 20 mg/kg; for Tumor Volume (mm^3) 14 days: day 14, oral daily: compound 30 10 mg/kg, 33, 34, 40, 42, 43 20 mg/kg; for Tumor Volume (mm^3) 18 days: day 18, oral daily: compound 30 10 mg/kg, 33, 34, 40, 42, 43 20 mg/kg. As to the method:
For example, after 21 days of administration, the tumor volume of the representative compounds 30, 33, 34, 40, 42 and 43 decreased from the beginning of about 149 mm^3 to 3-39 mm^3.
The pharmacological experiments in vivo were performed on BALB/c nude mice that subcutaneously implanted NCI-H1975 lung cancer […] xenograft (CDX).
BALB/c nude mice, female, 6-8 weeks, weighted about 18-22 grams, the mice were kept in a special pathogen-free environment, and in a single ventilation cage (5 mice per cage). The bedding and water of all the cages were disinfected before use. All animals were free to obtain standard certified commercial laboratory diets. A total of 100 mice were purchased from Beijing Vital for research. The tumor tissue (20-30 mm^3) was implanted subcutaneously in the […] of each mouse for tumor growth. The experiment was started when the average tumor volume reached about 150-200 mm^3. The test compound was orally administered daily (compound 30 was administered at 10 mg/kg, compound 33, 34, 40, 42 and 43 were administered at 20 mg/kg and compound AZD9291 was administered continuously for 21 days at 5 mg/kg, the data were shown in Table 3). The tumor volume was measured twice a week with a two-dimensional caliper and the volume was measured in cubic millimeters and calculated by the following formula: V=V=0.5 a×b2, where a and b were the major and minor diameters of the tumor, respectively.

T2 sequence (P06213 28-1382): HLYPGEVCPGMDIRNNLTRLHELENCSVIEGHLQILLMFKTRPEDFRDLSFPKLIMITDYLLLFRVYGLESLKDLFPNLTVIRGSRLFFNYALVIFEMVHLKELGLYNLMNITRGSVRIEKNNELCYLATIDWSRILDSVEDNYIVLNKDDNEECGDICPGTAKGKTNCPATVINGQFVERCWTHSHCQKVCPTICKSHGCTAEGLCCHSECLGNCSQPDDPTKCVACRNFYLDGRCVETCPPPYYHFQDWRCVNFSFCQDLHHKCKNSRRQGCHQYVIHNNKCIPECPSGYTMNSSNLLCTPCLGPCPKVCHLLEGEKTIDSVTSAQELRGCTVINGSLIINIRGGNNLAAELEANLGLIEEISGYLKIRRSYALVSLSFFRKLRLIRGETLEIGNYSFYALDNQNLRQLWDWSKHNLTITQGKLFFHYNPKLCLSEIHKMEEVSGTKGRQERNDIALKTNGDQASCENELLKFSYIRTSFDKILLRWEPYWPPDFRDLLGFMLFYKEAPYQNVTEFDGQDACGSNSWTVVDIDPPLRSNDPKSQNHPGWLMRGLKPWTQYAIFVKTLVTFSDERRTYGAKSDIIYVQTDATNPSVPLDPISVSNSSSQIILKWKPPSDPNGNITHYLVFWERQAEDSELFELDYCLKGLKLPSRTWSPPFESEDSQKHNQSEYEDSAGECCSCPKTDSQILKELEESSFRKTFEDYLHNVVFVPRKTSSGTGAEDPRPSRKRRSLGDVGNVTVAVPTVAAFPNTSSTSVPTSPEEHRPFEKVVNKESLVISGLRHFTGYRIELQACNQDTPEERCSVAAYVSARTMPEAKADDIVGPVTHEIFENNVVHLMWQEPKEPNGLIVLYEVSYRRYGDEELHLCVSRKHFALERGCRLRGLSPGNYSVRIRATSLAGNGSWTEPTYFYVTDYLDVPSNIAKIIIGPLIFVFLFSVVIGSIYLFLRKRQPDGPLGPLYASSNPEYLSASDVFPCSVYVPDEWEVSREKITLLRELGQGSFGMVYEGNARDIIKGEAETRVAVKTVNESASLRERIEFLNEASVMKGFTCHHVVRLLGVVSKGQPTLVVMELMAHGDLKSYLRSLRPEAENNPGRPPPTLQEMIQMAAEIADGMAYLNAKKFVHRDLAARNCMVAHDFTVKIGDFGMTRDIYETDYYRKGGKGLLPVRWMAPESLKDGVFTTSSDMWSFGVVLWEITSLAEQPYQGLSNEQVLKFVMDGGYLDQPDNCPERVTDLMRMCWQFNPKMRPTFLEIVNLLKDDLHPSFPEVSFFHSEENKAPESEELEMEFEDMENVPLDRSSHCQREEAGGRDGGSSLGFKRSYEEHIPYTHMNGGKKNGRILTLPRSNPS
T1 sequence (P00533 25-1210): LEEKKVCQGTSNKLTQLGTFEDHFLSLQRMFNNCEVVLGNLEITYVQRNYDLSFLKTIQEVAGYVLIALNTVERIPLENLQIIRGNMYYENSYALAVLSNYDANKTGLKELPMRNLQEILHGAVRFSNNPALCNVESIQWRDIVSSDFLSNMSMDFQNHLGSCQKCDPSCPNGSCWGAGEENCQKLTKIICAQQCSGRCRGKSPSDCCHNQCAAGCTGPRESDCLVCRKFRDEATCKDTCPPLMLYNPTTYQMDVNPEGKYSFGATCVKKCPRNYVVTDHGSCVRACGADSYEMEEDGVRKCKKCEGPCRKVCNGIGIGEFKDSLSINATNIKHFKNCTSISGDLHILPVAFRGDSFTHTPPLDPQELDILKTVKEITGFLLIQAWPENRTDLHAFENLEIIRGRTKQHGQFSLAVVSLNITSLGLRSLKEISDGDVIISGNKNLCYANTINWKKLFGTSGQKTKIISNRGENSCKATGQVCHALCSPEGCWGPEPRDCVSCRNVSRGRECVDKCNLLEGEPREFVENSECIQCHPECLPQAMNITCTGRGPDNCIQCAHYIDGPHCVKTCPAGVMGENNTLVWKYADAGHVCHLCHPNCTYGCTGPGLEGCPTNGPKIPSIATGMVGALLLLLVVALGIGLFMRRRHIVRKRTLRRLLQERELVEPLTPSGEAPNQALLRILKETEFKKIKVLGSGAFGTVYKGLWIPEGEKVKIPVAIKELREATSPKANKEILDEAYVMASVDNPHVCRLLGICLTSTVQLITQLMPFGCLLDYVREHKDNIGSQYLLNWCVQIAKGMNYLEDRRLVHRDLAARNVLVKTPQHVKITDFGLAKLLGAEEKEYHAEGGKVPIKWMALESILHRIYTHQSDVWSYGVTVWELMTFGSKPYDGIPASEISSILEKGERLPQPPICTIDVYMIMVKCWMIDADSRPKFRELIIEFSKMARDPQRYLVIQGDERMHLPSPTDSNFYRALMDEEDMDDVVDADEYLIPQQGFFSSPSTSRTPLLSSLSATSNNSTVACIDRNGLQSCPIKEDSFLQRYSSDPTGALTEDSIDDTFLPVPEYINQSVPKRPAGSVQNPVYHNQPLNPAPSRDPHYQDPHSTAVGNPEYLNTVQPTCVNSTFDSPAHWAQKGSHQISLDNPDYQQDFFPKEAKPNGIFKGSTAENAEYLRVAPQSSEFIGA
T3 sequence (P00533 with tags, fused parts or gaps DEL746-750/T790M limits assumed): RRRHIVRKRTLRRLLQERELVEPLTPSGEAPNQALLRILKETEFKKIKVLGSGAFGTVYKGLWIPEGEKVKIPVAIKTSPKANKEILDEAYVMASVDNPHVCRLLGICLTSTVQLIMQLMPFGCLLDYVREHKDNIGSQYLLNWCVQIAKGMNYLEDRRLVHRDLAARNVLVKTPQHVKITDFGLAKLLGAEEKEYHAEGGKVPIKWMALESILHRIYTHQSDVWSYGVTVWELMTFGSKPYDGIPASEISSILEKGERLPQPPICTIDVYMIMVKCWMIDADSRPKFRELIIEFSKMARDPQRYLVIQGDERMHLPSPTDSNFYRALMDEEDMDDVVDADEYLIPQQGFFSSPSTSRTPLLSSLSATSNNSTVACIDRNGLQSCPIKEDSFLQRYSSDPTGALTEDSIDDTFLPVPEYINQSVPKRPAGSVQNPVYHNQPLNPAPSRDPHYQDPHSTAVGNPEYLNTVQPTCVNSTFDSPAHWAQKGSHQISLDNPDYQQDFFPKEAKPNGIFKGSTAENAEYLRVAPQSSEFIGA

As for `C=CC(=O)Nc1cc(Nc2nccc(-c3c4n(c5ccccc35)CCOC4)n2)c(OC)cc1N(C)CC(C)(C)N(C)C` [Embodiment 25, N-(5-((4-(3,4-Dihydro-1H-[1,4]oxazino[4,3-a]indol-10-yl)pyrimidin-2-yl)amino)-2-((2-(dimethylamino)-2-methylpropyl)(methyl)amino)-4-methoxyphenyl)acrylamide], the IC50 was determined as 0.81 nM in assay [1]; 248 nM in assay [2]; 333 nM in assay [3]; 0.13 nM in assay [4]; 4 nM in assay [5]; 0.2 nM in assay [6]. Also, the “A431:NCI-H1975 (ratio)” value in assay [2] was 62.

`C=CC(=O)Nc1cc(Nc2nccc(-c3c4n(c5ccccc35)CCC4)n2)c(OC)cc1OCCN(C)C` [Embodiment 3, N-(5-((4-(2,3-Dihydro-1H-pyrrolo[1,2-a]indol-9-yl)pyrimidin-2-yl)amino)-2-(2-(dimethylamino)ethoxy)-4-methoxyphenyl)acrylamide]: the IC50 in assay [1] turned out to be 1.58 nM; in assay [2] it was 854 nM; in assay [3], 886 nM; in assay [4] it was 0.19 nM; in assay [5], 67.2 nM; in assay [6], 0.21 nM. The “A431:NCI-H1975 (ratio)” value in assay [2] is 12.7.

On to `C=CC(=O)Nc1cc(Nc2nccc(-c3c4n(c5cc(F)ccc35)CCOC4)n2)c(OC)cc1N(C)CCN(C)C` [Embodiment 38, N-(2-((2-(Dimethylamino)ethyl)(methyl)amino)-5-((4-(7-fluoro-3,4-dihydro-1H-[1,4]oxazino[4,3-a]indol-10-yl)pyrimidin-2-yl)amino)-4-methoxyphenyl)acrylamide], for which the IC50 in assay [1] was 0.6 nM; in assay [2], 317 nM; in assay [3] it was 310 nM; in assay [4] it was 0.1 nM; in assay [5], 7 nM; in assay [6] it was 0.09 nM. Also, in assay [2], the “A431:NCI-H1975 (ratio)” value is 45.

In the case of `C=CC(=O)Nc1cc(Nc2nccc(-c3c4n(c5ccccc35)CCOC4)n2)c(OC)cc1N(C)CCN(C)C` [Embodiment 17, N-(5-((4-(3,4-Dihydro-1H-[1,4]oxazino[4,3-a]indol-10-yl)pyrimidin-2-yl)amino)-2-((2-(dimethylamino)ethyl)(methyl)amino)-4-methoxyphenyl)acrylamide], the IC50 stood at 0.89 nM in assay [1]; 777 nM in assay [2]; 341 nM in assay [3]; 0.18 nM in assay [4]; 4.1 nM in assay [5]; 0.21 nM in assay [6]. Moreover, the “A431:NCI-H1975 (ratio)” value in assay [2] is given as 189.5.

For `C=CC(=O)Nc1cc(Nc2nccc(-c3cn4c5c(cccc35)OCCC4)n2)c(OC)cc1N(C)CCN(C)C` [Embodiment 40, N-(5-((4-(3,4-Dihydro-2H-[1,4]oxazepino[2,3,4-hi]indol-7-yl)pyrimidin-2-yl)amino)-2-((2-(dimethylamino)ethyl)(methyl)amino)-4-methoxyphenyl)acrylamide], the IC50 turned out to be 0.8 nM in assay [1]; 279 nM in assay [2]; 0.4 nM in assay [4]; 23 nM in assay [5]; 0.3 nM in assay [6]. Further, the “A431:NCI-H1975 (ratio)” value in assay [2] was found to be 12. Also, the “Tumor Volume (mm^3) 4 days” value in assay [7] worked out at 212 mm^3; in assay [8], 108 mm^3. For the same molecule, the “Tumor Volume (mm^3) 11 days” value is recorded as 445 mm^3 in assay [7] and 91 mm^3 in assay [8]. Further, the entries for the “Tumor Volume (mm^3) 18 days” value in assay [7] and in assay [8] were 895 mm^3 and 84 mm^3, respectively. Further, the “Tumor Volume (mm^3) 7 days” value in assay [8] is 85 mm^3. The “Tumor Volume (mm^3) 14 days” value in assay [8] is on record as 91 mm^3.

Regarding `C=CC(=O)Nc1cc(Nc2ncc(F)c(-c3c4n(c5cc(Cl)ccc35)CCOC4)n2)c(OC)cc1N(C)CCN(C)C` [Embodiment 34, N-(5-((4-(7-Chloro-3,4-dihydro-1H-[1,4]oxazino[4,3-a]indol-10-yl)-5-fluoropyrimidin-2-yl)amino)-2-((2-(dimethylamino)ethyl)(methyl)amino)-4-methoxyphenyl)acrylamide], the IC50 in assay [1] was 2 nM. Besides, in assay [2], the IC50 worked out at 2100 nM and the “A431:NCI-H1975 (ratio)” value was found to be 31. Besides, in assay [7], the “Tumor Volume (mm^3) 4 days” value is 237 mm^3, the “Tumor Volume (mm^3) 11 days” value stood at 646 mm^3 and the “Tumor Volume (mm^3) 18 days” value came to 1357 mm^3. For the same molecule, the IC50 in assay [4] came to 0.6 nM. In assay [8], the “Tumor Volume (mm^3) 4 days” value was determined as 102 mm^3, the “Tumor Volume (mm^3) 7 days” value is recorded as 80 mm^3, the “Tumor Volume (mm^3) 11 days” value was determined as 70 mm^3 and the “Tumor Volume (mm^3) 14 days” value amounted to 59 mm^3. Also, in assay [8], the “Tumor Volume (mm^3) 18 days” value came to 35 mm^3. Moreover, the IC50 in assay [5] is 68 nM. Besides, the IC50 in assay [6] turned out to be 0.8 nM.
